Experimental data as given in patent US20030032791A1, “Novel melanocortin-4 receptor sequences and screening assays to identify compounds useful in regulating animal appetite and metabolic rate” (priority 2000, published 2003).
Like-named read-outs stand apart in the source and are kept apart here. Marks after values point to notes of the source that are not given here. Blank lines part the entries; values can stand above or below the compound they belong to. Residues, ends and D or L forms follow the SMILES beside them.

Tests used:
Obese Beagle Dogs [1] = assay: 24 hr food intake following ICV injection in lateral ventricle cannulated dogs; assay type: in vivo, dog; conditions: NDP-MSH 100 nmol
Source text: (§1) Healthy, (1-3 years of age) male and female beagles (Marshall Farms, North Rose N.Y.) weighing 11-15 kg were employed as test subjects. The animals were surgically implanted with lateral ventricle cannulas using standard techniques. Wilsson-Rahmberg et al., 1998, J. Investigative Surgery, 11:207-214. Cannula placement and patency were confirmed with fluoroscopy. The dogs were housed individually in standard caging meeting or exceeding the USDA regulations (U.S. Department of Agriculture, Animal Welfare, Final Rules. 9 C.F.R. Parts 1-3,1995).
Each subject received a single 50 μl injection in one lateral ventricle (ICV injection) of one of 3 solutions: 30-100 nmol of the non-specific melanocortin (MC) receptor agonist [N1 e^4, D-Phe^7]-α-MSH (hereinafter “NDP-MSH,” Bachem Bioscience Inc., King of Prussia Pa.), 1-2 nmol of the MC3/4 receptor antagonist SHU-9119 (Bachem Bioscience Inc., King of Prussia, Pa.) or vehicle which consisted of artificial cerebrospinal fluid (hereinafter “aCSF,” Harvard Apparatus, Holliston, Mass.). […] Following ICV injection, resulting effects on food intake or metabolic rate were determined.
The studies consisted of one group of animals containing five dogs. […] Resulting effects on food intake were determined. […] Resulting effects on food intake were determined. […] Resulting effects on metabolic rate were determined. […] Resulting effects on metabolic rate were determined. […]

Obese Beagle Dogs [2] = assay: Indirect calorimetry following ICV injection in lateral ventricle cannulated dogs; assay type: in vivo, dog; conditions: NDP-MSH 75 mol
Source text: as §1
Each subject received a single 50 μl injection in one lateral ventricle (ICV injection) of one of 3 solutions: 30-100 nmol of the non-specific melanocortin (MC) receptor agonist [N1 e^4, D-Phe^7]-α-MSH (hereinafter “NDP-MSH,” Bachem Bioscience Inc., King of Prussia Pa.), 1-2 nmol of the MC3/4 receptor antagonist SHU-9119 (Bachem Bioscience Inc., King of Prussia, Pa.) or vehicle which consisted of artificial cerebrospinal fluid (hereinafter “aCSF,” Harvard Apparatus, Holliston, Mass.). NDP-MSH and SHU-9119 were received as a dry powder and were reconstituted with aCSF to achieve an appropriate concentration for a ^50 μl injection. Following ICV injection, resulting effects on food intake or metabolic rate were determined.
The studies consisted of one group of animals containing five dogs. In study 1, dogs received either NDP-MSH or aCSF on day 0 in a cross-over design with two dogs receiving NDP-MSH first and three dogs receiving aCSF first. Resulting effects on food intake were determined. In study 2, dogs received either SHU-9119 or aCSF on day 0 in a cross-over design with two dogs receiving SHU-9119 first and three dogs receiving aCSF first. Resulting effects on food intake were determined. In study 3, dogs received either NDP-MSH or aCSF on day 0 in a cross-over design with three dogs receiving NDP-MSH first and two dogs receiving aCSF first. Resulting effects on metabolic rate were determined. In study 4, dogs received either SHU-9119 or aCSF on day 0 in a cross-over design with three dogs receiving SHU-9119 first and two dogs receiving aCSF first. Resulting effects on metabolic rate were determined. Each test animal was permitted ad libitum access to water and IAMS […]® (The IAMS Company, Dayton Ohio) dry food each day during the study unless otherwise noted.
Reduction or increase in metabolic rate was measured by standard indirect calorimetry using an open circuit calorimeter (OXYMAX DELUXE@, Columbus Instruments, Columbus Ohio). Dogs were fasted for approximately 18 hours prior to ICV injection. Calorimetry sessions were initiated approximately 2 hours after ICV injection and lasted for 60-90 minutes.

cMC4R [3] = assay: FLIPR calcium release assay in HEK293a/cMC4R/Gα15, Gα16 cells; conditions: read-out: EC50, agonist stimulated calcium release; HEK293a/cMC4R/Gα15, Gα16, Fluo-4
canine MC4R = canine MC4R (Canis lupus familiaris, UniProt A0A2Z6BEC9); conditions: 1 pM α-MSH
canine MC4R (canine) [4] = assay: cell-based or functional assay
canine MC4R (canine) [5] = target: canine MC4R (canine)
cMC4R [6] = assay: cMC4R
hMC4R [7] = target: T1, hMC4R (Homo sapiens, UniProt P32245); assay: hMC4R; set-up: expressed in transfected cells; host or cells: HEK293
Target sequence in this assay (P32245 whole entry, looked up): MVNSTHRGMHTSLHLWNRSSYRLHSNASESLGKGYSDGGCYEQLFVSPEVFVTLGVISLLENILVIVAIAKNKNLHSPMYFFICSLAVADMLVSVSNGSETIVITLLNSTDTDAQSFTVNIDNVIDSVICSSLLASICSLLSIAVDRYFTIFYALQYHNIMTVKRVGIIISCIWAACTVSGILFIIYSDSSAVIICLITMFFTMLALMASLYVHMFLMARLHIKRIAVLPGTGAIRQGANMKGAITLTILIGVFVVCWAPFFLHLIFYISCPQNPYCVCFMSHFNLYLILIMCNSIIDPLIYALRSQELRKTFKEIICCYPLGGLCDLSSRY

hMC3R [8] = target: T2, hMC3R (Homo sapiens, UniProt P41968)
Target sequence in this assay (P41968 whole entry): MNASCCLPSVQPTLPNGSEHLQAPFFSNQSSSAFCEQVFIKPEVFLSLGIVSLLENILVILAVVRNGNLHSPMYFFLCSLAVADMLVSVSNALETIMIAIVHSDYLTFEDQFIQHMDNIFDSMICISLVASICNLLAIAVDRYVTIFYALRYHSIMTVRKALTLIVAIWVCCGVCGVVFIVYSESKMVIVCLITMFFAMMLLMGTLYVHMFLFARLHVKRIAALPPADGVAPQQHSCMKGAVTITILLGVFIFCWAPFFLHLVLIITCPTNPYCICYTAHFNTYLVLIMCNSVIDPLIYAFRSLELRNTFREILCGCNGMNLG

hMC4R [9] = target: T1, hMC4R
Target sequence in this assay (P32245 whole entry): as the sequence (P32245 whole entry, looked up) above

hMC3R [10] = target: T2, hMC3R; assay: hMC3R; set-up: expressed in transfected cells; host or cells: HEK293
Target sequence in this assay (P41968 whole entry, looked up): as the sequence (P41968 whole entry) above

hMC3R [11] = target: T2, hMC3R; remark: listed apart in the source
Target sequence in this assay (P41968 whole entry): as above

hMC4R [12] = target: T1, hMC4R; remark: listed apart in the source
Target sequence in this assay (P32245 whole entry): as the sequence (P32245 whole entry, looked up) above

[13] = versus aCSF control, SHU 9119 2 nmol ICV
[14] = ICV injection, SHU 9119 2 nmol, about 2 hours after injection, fasted dogs

Chain of canine MC4R (canine) (Q0Z8I9 other isoform, or with tags, fused parts or gaps): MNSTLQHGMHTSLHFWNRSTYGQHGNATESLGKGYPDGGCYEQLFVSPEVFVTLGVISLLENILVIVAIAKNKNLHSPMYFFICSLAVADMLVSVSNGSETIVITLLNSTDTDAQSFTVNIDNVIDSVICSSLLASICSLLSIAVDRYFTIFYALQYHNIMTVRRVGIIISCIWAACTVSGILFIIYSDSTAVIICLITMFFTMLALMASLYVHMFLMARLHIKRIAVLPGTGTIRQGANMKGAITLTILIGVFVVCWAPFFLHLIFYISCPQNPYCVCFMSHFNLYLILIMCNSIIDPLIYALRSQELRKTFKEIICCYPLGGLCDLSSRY
Chain of canine MC4R (A0A2Z6BEC9 1-332): as the sequence (Q0Z8I9 other isoform, or with tags, fused parts or gaps) above

Compound: SHU9119
24 hr Food Intake, Average (Obese Beagle Dogs [1]; ICV injection, SHU 9119 2 nmol): 366 g | 24 hr Food Intake, % Change (Obese Beagle Dogs [1]; [13]): +132* % | Heat Produced, Average (Obese Beagle Dogs [2]; [14]): 13 kcal/h | VO2, Average (Obese Beagle Dogs [2]; [14]): 3.6 mL/min/kg | Heat Produced, % Change (Obese Beagle Dogs [2]; [13]): −37* % | VO2, % Change (Obese Beagle Dogs [2]; [13]): −38* %

Compound: MTII (peptide)
EC50, agonist stimulated calcium release (FLIPR, HEK293a/cMC4R/Gα15, Gα16 cells) (canine MC4R (canine) [4]): 10 nM | IC50 (canine MC4R (canine) [5]): 0.877 nM

Compound: N=C(N)NCCC[C@@H]1NC(=O)[C@@H](Cc2ccc3ccccc3c2)NC(=O)[C@H](Cc2c[nH]cn2)NC(=O)[C@H](CCC(=O)O)NC(=O)CCSSC[C@@H](C(=O)N2CCC[C@H]2C(=O)N2CCC[C@H]2C(=O)N[C@@H](CCCCN)C(=O)N[C@@H](CC(=O)O)C(N)=O)NC(=O)CNC(=O)[C@H](Cc2c[nH]c3ccccc23)NC1=O [JKC363] (HELM PEPTIDE1{[O=C(CCS[*:3])[*:2]].E.H.[O=C([C@@H](Cc1ccc2ccccc2c1)N[*:1])[*:2]].R.W.G.C.P.P.K.D.[am]}$PEPTIDE1,PEPTIDE1,1:R3-8:R3$$$V2.0; C-terminus assumed)
IC50 (cMC4R [6]): 0.971 nM | IC50 (hMC4R [7]): 1.31 nM | IC50 (hMC3R [8]): 22.7 nM | IC50 (hMC4R [9]): 2.11 nM | IC50 (hMC3R [10]): 15.1 nM

Compound: JKC363 (peptide)
IC50 (hMC3R [11]): 22.8 nM | IC50 (canine MC4R (canine) [5]): 1.27 nM

Other lines, results leading:

EC50 (cMC4R [3]): 55 nM | concentration of cAMP (canine MC4R; 30 minutes, most concentrated batch of cells (1.5×10^6 cells/ml)): 13.82 pmol/mL | cAMP levels over background (canine MC4R; cells at each concentration (0.5, 1.0, 1.5×10^6 cells/ml)): significant increase | difference in cAMP versus negative control cells (canine MC4R; most concentrated batch of cells): almost ten-fold
Compound: α-MSH

EC50, agonist stimulated calcium release (FLIPR, HEK293a/cMC4R/Gα15, Gα16 cells) (canine MC4R (canine) [4]): 55 nM | cAMP, fold over negative control cells (canine MC4R (canine) [4]): 10 fold | concentration of cAMP in α-MSH treated cells (1.5×10^6 cells/ml) (canine MC4R (canine) [4]): 13.8 pmol/mL
Compound: α-MSH (from UniProt P01189 138-150) (peptide)

EC50 (cMC4R [3]): 10 nM
Compound: MTII

IC50, antagonist inhibition of calcium release in the presence of 20 nM NDP-MSH agonist (FLIPR) (canine MC4R (canine) [4]): 2 nM | IC50 (hMC3R [11]): 0.188 nM | IC50 (hMC4R [12]): 0.0116 nM
Compound: SHU9119 (peptide)
